US5998376A, “Substance P treatment for immunostimulation” (priority 1998, dated 1999)

Experiments:
[1] = system: splenic T cells; assay: Mitogenesis of spleen T cells (ConA, 3H-thymidine) from LP-BM5-infected mice given SP aerosol; type: in vivo, C57BL6 mice
Protocol: (§1) C57BL6 mice, average weight of 25-30 grams, were infected with the LP-BM5 murine leukemia retrovirus to simulate the human AIDS virus. […] The mice were divided into two groups; LP-BM5 virus only and LP-BM5 virus +substance P aerosol therapy at 1 μM concentration. The mice were killed at 4 and 8 weeks post-inoculation.
The proliferation of splenic B and T cells induced by mitogens was determined by incorporation of radioactive thymidine. Splenocytes in 0.1 ml of cell culture medium (1×10^7 cells/ml) were cultured in 96-well flat-bottom cultured plates with ConA and lipopolysaccharide, 5 micrograms/ml). […] After 4 hours for radioactive thymidine uptake, the cells were harvested by a cell sample harvester. Radioactivity was determined by a liquid scintillation counter (Tri-Carb, 2200CA). The T and B cell mitogenesis values were recorded as counts per min in 1×10^7 cells/ml.

[2] = system: LP-BM5 murine leukemia retrovirus; assay: Mouse AIDS model, spleen changes and total cell numbers; type: in vivo, C57BL6 mice
Protocol: as §1

[3] = system: lymphocyte subpopulations; assay: Flow cytometric analyses (FACS) of immune organs, JP-8 exposed mice; type: in vivo, C57B16 mice
Protocol: At 24 hours after the last exposure, the animals were sacrificed and the effects of exposure on the immune system examined. Immune organs (spleen, thymus, blood, lymph nodes and bone marrow) were recovered and analyzed for effects on organ weight, total cell numbers, immune cell populations (by differentials), and lymphocyte subpopulations (by flow cytometry). Assays were also performed to examine the effects of exposure on immune function. […] Similar effects on immune cell subpopulations were also observed in lymph nodes. In the thymus it appeared that the immature CD4^+ CD8^+ cells were differentially lost due to exposure. […] However, these effects are prevented or ameliorated by treatment of the animals with Substance P.
Flow cytometric analyses (FACS): One- and two-color FACS analyses are performed using a Becton-Dickinson FACStar Plus flow cytometer. Cells are stained with the indicated monoclonal antibodies according to standard procedures (Harris et al., id). Cells alone and cells reacted with conjugated isotype control, irrelevant mAbs are used as controls. Data is presented as the percentage of cells staining positive for each individual mAb.

[4] = system: melanoma B16 cancer cells; assay: B16 melanoma tail vein injection, tumor colonies in both lungs; type: in vivo, mice; conditions: for mean number of tumor colonies observed in both lungs: 1×10^4 B16 cells/mouse, 4 weeks post-injection
Description: The mice were infected with syngeneic […] melanoma B16 cancer cells by tail vein injection. The dose was 1×10^4 B16 tumor cells/mouse. […] The second group of mice was given their substance P aerosol therapy starting one week after the injection of the B16 cells. The aerosol therapy lasted for one week. Both groups of mice and their corresponding controls (injection with B16 cells and no substance P therapy) were killed at 4 weeks post-injection with B16 cells. The data is presented as the mean number of tumor colonies observed in both lungs.

[5] = LP-BM5 virus + SP aerosol 1 μM, 4 weeks after infection, mean (SEM)
[6] = JP-8 dose 0 + SP or antagonist aerosol
[7] = JP-8 dose 1000 + SP or antagonist aerosol
[8] = JP-8 dose 1000 + nSP (1 nanomolar substance P)

Substance: Substance P [SP]
- Spleen T Cell Mitogenesis, 24 Hours in Culture ([1]; LP-BM5 virus + SP aerosol 1 μM 3 days/week, 4 weeks after infection, mean (SEM)): 2963 (56) counts per min
- Spleen T Cell Mitogenesis, 48 Hours in Culture [1, 5]: 2769 (23) counts per min
- Spleen T Cell Mitogenesis, 72 hours in culture [1, 5]: 4362 (69) counts per min
- Spleen T Cell Mitogenesis, 72 hours in culture ([1]; LP-BM5 virus + SP aerosol 1 μM, 8 weeks post-infection): 3127 (77) counts per min
- changes in the mouse spleens ([2]; LP-BM5 mouse model, SP aerosol therapy): caused significant changes in the mouse spleens
- total cell numbers (spleen) versus LP-BM5 group ([2]; SP+Virus Group, 4 weeks after infection): not accompanied by an increase in total cell numbers
- BM CD3, cells staining positive [3, 6]: 12%
- BM CD4, cells staining positive [3, 6]: 11%
- BM CD8, cells staining positive [3, 6]: 1%
- BM CD45, cells staining positive [3, 6]: 48%
- Spleen CD3, cells staining positive [3, 6]: 42%
- Spleen CD4, cells staining positive [3, 6]: 26%
- Spleen CD8, cells staining positive [3, 6]: 11%
- Spleen CD45, cells staining positive [3, 6]: 23%
- Spleen MAC1, cells staining positive [3, 6]: 1%
- Thymus CD3, cells staining positive [3, 6]: 10%
- Thymus DN, cells staining positive [3, 6]: 7%
- Thymus DP, cells staining positive [3, 6]: 84%
- Thymus SP4, cells staining positive [3, 6]: 6%
- Thymus SP8, cells staining positive [3, 6]: 2%
- BM CD3, cells staining positive ([3]; JP-8 dose 250 + SP aerosol): 13%
- BM CD4, cells staining positive ([3]; JP-8 dose 250 + SP aerosol): 10%
- BM CD8, cells staining positive ([3]; JP-8 dose 250 + SP aerosol): 3%
- BM CD45, cells staining positive ([3]; JP-8 dose 250 + SP aerosol): 48%
- BM MAC1, cells staining positive ([3]; JP-8 dose 250 + SP aerosol): 10%
- LN CD3, cells staining positive ([3]; JP-8 dose 250 + SP aerosol): 85%
- LN CD4, cells staining positive ([3]; JP-8 dose 250 + SP aerosol): 48%
- LN CD8, cells staining positive ([3]; JP-8 dose 250 + SP aerosol): 12%
- LN CD45, cells staining positive ([3]; JP-8 dose 250 + SP aerosol): 13%
- LN MAC1, cells staining positive ([3]; JP-8 dose 250 + SP aerosol): 1%
- PBL CD3, cells staining positive ([3]; JP-8 dose 250 + SP aerosol): 59%
- PBL CD4, cells staining positive ([3]; JP-8 dose 250 + SP aerosol): 15%
- PBL CD8, cells staining positive ([3]; JP-8 dose 250 + SP aerosol): 6%
- PBL CD45, cells staining positive ([3]; JP-8 dose 250 + SP aerosol): 16%
- PBL MAC1, cells staining positive ([3]; JP-8 dose 250 + SP aerosol): 1%
- Spleen CD3, cells staining positive ([3]; JP-8 dose 250 + SP aerosol): 62%
- Spleen CD4, cells staining positive ([3]; JP-8 dose 250 + SP aerosol): 27%
- Spleen CD8, cells staining positive ([3]; JP-8 dose 250 + SP aerosol): 3%
- Spleen CD45, cells staining positive ([3]; JP-8 dose 250 + SP aerosol): 21%
- Spleen MAC1, cells staining positive ([3]; JP-8 dose 250 + SP aerosol): 1%
- Thymus CD3, cells staining positive ([3]; JP-8 dose 250 + SP aerosol): 24%
- Thymus DN, cells staining positive ([3]; JP-8 dose 250 + SP aerosol): 5%
- Thymus DP, cells staining positive ([3]; JP-8 dose 250 + SP aerosol): 68%
- Thymus SP4, cells staining positive ([3]; JP-8 dose 250 + SP aerosol): 22%
- Thymus SP8, cells staining positive ([3]; JP-8 dose 250 + SP aerosol): 5%
- BM CD3, cells staining positive [3, 7]: 14%
- BM CD4, cells staining positive [3, 7]: 9%
- BM CD8, cells staining positive [3, 7]: 2%
- BM CD45, cells staining positive [3, 7]: 31%
- BM MAC1, cells staining positive [3, 7]: 26%
- LN CD3, cells staining positive [3, 7]: 86%
- LN CD4, cells staining positive [3, 7]: 29%
- LN CD8, cells staining positive [3, 7]: 11%
- LN CD45, cells staining positive [3, 7]: 22%
- LN MAC1, cells staining positive [3, 7]: 0%
- PBL CD3, cells staining positive [3, 7]: 61%
- PBL CD4, cells staining positive [3, 7]: 23%
- PBL CD8, cells staining positive [3, 7]: 10%
- PBL CD45, cells staining positive [3, 7]: 22%
- PBL MAC1, cells staining positive [3, 7]: 3%
- Spleen CD3, cells staining positive [3, 7]: 34%
- Spleen CD4, cells staining positive [3, 7]: 18%
- Spleen CD8, cells staining positive [3, 7]: 10%
- Spleen CD45, cells staining positive [3, 7]: 20%
- Spleen MAC1, cells staining positive [3, 7]: 5%
- Thymus CD3, cells staining positive [3, 7]: 20%
- Thymus DN, cells staining positive [3, 7]: 10%
- Thymus DP, cells staining positive [3, 7]: 65%
- Thymus SP4, cells staining positive [3, 7]: 16%
- Thymus SP8, cells staining positive [3, 7]: 6%
- BM CD3, cells staining positive [3, 8]: 13%
- BM CD4, cells staining positive [3, 8]: 10%
- BM CD8, cells staining positive [3, 8]: 3%
- BM CD45, cells staining positive [3, 8]: 43%
- BM MAC1, cells staining positive [3, 8]: 16%
- LN CD3, cells staining positive [3, 8]: 95%
- LN CD4, cells staining positive [3, 8]: 42%
- LN CD8, cells staining positive [3, 8]: 25%
- LN CD45, cells staining positive [3, 8]: 23%
- LN MAC1, cells staining positive [3, 8]: 0%
- PBL CD3, cells staining positive [3, 8]: 78%
- PBL CD4, cells staining positive [3, 8]: 25%
- PBL CD8, cells staining positive [3, 8]: 8%
- PBL CD45, cells staining positive [3, 8]: 29%
- PBL MAC1, cells staining positive [3, 8]: 2%
- Spleen CD3, cells staining positive [3, 8]: 60%
- Spleen CD4, cells staining positive [3, 8]: 15%
- Spleen CD8, cells staining positive [3, 8]: 5%
- Spleen CD45, cells staining positive [3, 8]: 41%
- Spleen MAC1, cells staining positive [3, 8]: 1%
- Thymus CD3, cells staining positive [3, 8]: 25%
- Thymus DN, cells staining positive [3, 8]: 7%
- Thymus DP, cells staining positive [3, 8]: 69%
- Thymus SP4, cells staining positive [3, 8]: 16%
- Thymus SP8, cells staining positive [3, 8]: 7%
- BM CD3, cells staining positive ([3]; JP-8 dose 2500 + SP aerosol): 6%
- BM CD4, cells staining positive ([3]; JP-8 dose 2500 + SP aerosol): 3%
- BM CD8, cells staining positive ([3]; JP-8 dose 2500 + SP aerosol): 6%
- BM CD45, cells staining positive ([3]; JP-8 dose 2500 + SP aerosol): 24%
- BM MAC1, cells staining positive ([3]; JP-8 dose 2500 + SP aerosol): 34%
- Spleen CD3, cells staining positive ([3]; JP-8 dose 2500 + SP aerosol): 38%
- Spleen CD4, cells staining positive ([3]; JP-8 dose 2500 + SP aerosol): 26%
- Spleen CD8, cells staining positive ([3]; JP-8 dose 2500 + SP aerosol): 14%
- Spleen CD45, cells staining positive ([3]; JP-8 dose 2500 + SP aerosol): 31%
- Spleen MAC1, cells staining positive ([3]; JP-8 dose 2500 + SP aerosol): 3%
- Thymus CD3, cells staining positive ([3]; JP-8 dose 2500 + SP aerosol): 16%
- Thymus DN, cells staining positive ([3]; JP-8 dose 2500 + SP aerosol): 19%
- Thymus DP, cells staining positive ([3]; JP-8 dose 2500 + SP aerosol): 64%
- Thymus SP4, cells staining positive ([3]; JP-8 dose 2500 + SP aerosol): 15%
- Thymus SP8, cells staining positive ([3]; JP-8 dose 2500 + SP aerosol): 5%
- mean number of tumor colonies observed in both lungs ([4]; 1 μM SP aerosol 15 min/day 7 days starting immediately after injection): 39
- mean number of tumor colonies observed in both lungs ([4]; 1 μM SP aerosol for one week starting one week after injection): 1
- rate of tumor colonization ([4]; tumor-challenged mammals, aerosol therapy): reduce the rate of tumor colonization
